Assay results taken from US20110311485A1, “1,2,4-OXADIAZOLE DERIVATIVES AND THEIR THERAPEUTIC USE” (ALMIRALL S.A., priority 2008, published 2011).

target: S1P1 receptors (Homo sapiens, UniProt P21453); assay: 35S-GTPyS binding assay; type: biochemical; conditions: 35S-GTPyS binding on membranes; compound 0.1 nM-10 μM; 10 μM S1P as 100% maximum efficacy; 90 min at room temperature
Description: The effect of the compounds was measured using a 35S-GTPyS binding assay. Briefly, membranes were incubated in a buffer containing 20 mM HEPES pH 7.4, 100 mM NaCl, 10 mM MgCl2, 10 μM GDP, 50 μg/ml saponin and 0.2% fatty acid-free BSA at various concentrations (0.1 nM-10 μM) and 0.1 nM 35S-GTPyS. 10 μM S1P was used as 100% maximum efficacy. The assay was incubated for 90 min at room temperature with gentle mixing, and terminated by filtrating the reaction mixture through GF/C filter plates using the Manifold Filtration System. The filters were immediately washed with sodium phosphate pH 7.4 buffers. After drying the filter plates scintillant liquid were added to each well and 35S-GTPyS binding was measured on a Trilux Scintillation Counter.

S1P1 receptors, sequence (P21453 whole entry): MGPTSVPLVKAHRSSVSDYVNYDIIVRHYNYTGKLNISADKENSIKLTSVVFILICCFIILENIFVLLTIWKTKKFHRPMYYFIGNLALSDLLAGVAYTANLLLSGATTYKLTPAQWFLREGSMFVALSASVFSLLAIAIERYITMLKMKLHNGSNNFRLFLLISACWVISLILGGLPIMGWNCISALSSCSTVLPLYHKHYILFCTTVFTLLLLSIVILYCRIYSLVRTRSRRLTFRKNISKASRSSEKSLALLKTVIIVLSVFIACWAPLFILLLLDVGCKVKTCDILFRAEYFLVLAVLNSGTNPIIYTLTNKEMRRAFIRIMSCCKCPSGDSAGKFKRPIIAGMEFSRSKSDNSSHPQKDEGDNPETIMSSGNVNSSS

Structure (SMILES) | EC50
CCn1nc(-c2nc(-c3cc(C)c(CC(N)=O)c(C)c3)no2)c2c1CC(C)(C)CC2 [Example 137, 2-{4-[5-(1-ethyl-6,6-dimethyl-4,5,6,7-tetrahydro-1H-indazol-3-yl)-1,2,4-oxadiazol-3-yl]-2,6-dimethylphenyl}acetamide] | 3.6 nM
Cc1cc(-c2noc(-c3nn(C)c4c3CCC(C)(C)C4)n2)cc(C)c1CCN[C@@H](C)C(=O)O [Example 146, N-(2-{2,6-dimethyl-4-[5-(1,6,6-trimethyl-4,5,6,7-tetrahydro-1H-indazol-3-yl)-1,2,4-oxadiazol-3-yl]phenyl}ethyl)-L-alanine] | 1.4 nM
Cn1nc(-c2nnc(-c3ccc(CCN4CC(C(=O)O)C4)c(C(F)(F)F)c3)s2)c2c1CC(C)(C)CC2 [Example 198, 1-(2-(trifluoromethyl)-4-(5-(1,6,6-trimethyl-4,5,6,7-tetrahydro-1H-indazol-3-yl)-1,3,4-thiadiazol-2-yl)phenethyl)azetidine-3-carboxylic Acid] | 12 nM
CCc1cc(-c2noc(-c3nn(CC)c4c3CCC(C)(C)C4)n2)c(C)nc1CCN [Example 138, (2-{3-ethyl-5-[5-(1-ethyl-6,6-dimethyl-4,5,6,7-tetrahydro-1H-indazol-3-yl)-1,2,4-oxadiazol-3-yl]-6-methylpyridin-2-yl}ethyl)amine] | 13 nM
CCn1nc(-c2nc(-c3ccc(CCN)cc3C)no2)c2c1CC(C)(C)CC2 [Example 48, 2-(4-(5-(1-Ethyl-6,6-dimethyl-4,5,6,7-tetrahydro-1H-indazol-3-yl)-1,2,4-oxadiazol-3-yl)-3-methylphenyl)ethanamine] | 8 nM
CCn1nc(-c2nc(-c3ccc(S(N)(=O)=O)cc3)no2)c2c1CC(C)(C)CC2 [Example 5, 4-(5-(1-Ethyl-6,6-dimethyl-4,5,6,7-tetrahydro-1H-indazol-3-yl)-1,2,4-oxadiazol-3-yl)benzenesulfonamide] | 40 nM
Cc1cc(-c2noc(-c3nn(C)c4c3CCC(C)(C)C4)n2)cc(C)c1CCN1CCC(CC(=O)O)CC1 [Example 143, [1-(2-{2,6-dimethyl-4-[5-(1,6,6-trimethyl-4,5,6,7-tetrahydro-1H-indazol-3-yl)-1,2,4-oxadiazol-3-yl]phenyl}ethyl)piperidin-4-yl]acetic acid] | 5.1 nM
Cc1cc(-c2noc(-c3nn(C)c4c3CCC(C)(C)C4)n2)cc(C)c1CCO [Example 141, 2-{2,6-dimethyl-4-[5-(1,6,6-trimethyl-4,5,6,7-tetrahydro-1H-indazol-3-yl)-1,2,4-oxadiazol-3-yl]phenyl}ethanol] | 4.6 nM
CCn1nc(-c2noc(-c3ccncc3)n2)c2c1CC(C)(C)CC2 [Example 99, 3-(1-Ethyl-6,6-dimethyl-4,5,6,7-tetrahydro-1H-indazol-3-yl)-5-(pyridin-4-yl)-1,2,4-oxadiazole] | 146 nM
CC1(C)CCc2c(-c3nc(-c4ccc(C(N)=O)cc4)no3)nn(Cc3ccccc3)c2C1 [Example 21, 4-(5-(1-Benzyl-6,6-dimethyl-4,5,6,7-tetrahydro-1H-indazol-3-yl)-1,2,4-oxadiazol-3-yl)benzamide] | 18 nM
CCn1nc(-c2nc(-c3ccc(N4CCN(CCC(=O)O)CC4)cc3)no2)c2c1CC(C)(C)CC2 [Example 8, 3-(4-(4-(5-(1-ethyl-6,6-dimethyl-4,5,6,7-tetrahydro-1H-indazol-3-yl)-1,2,4-oxadiazol-3-yl)phenyl)piperazin-1-yl)propanoic Acid] | 17 nM
CCn1nc(-c2nc(-c3ccc(CCNCC(=O)O)c(C(F)(F)F)c3)no2)c2c1CC(C)(C)CC2 [Example 162, N-{2-[4-[5-(1-ethyl-6,6-dimethyl-4,5,6,7-tetrahydro-1H-indazol-3-yl)-1,2,4-oxadiazol-3-yl]-2-(trifluoromethyl)phenyl]ethyl}glycine] | 0.56 nM
CCn1nc(-c2nc(-c3cccc4[nH]ccc34)no2)c2c1CC(C)(C)CC2 [Example 187, 5-(1-ethyl-6,6-dimethyl-4,5,6,7-tetrahydro-1H-indazol-3-yl)-3-(1H-indol-4-yl)-1,2,4-oxadiazole] | 10 nM
CCn1nc(-c2nc(-c3ccncc3C)no2)c2c1CC(C)(C)CC2 [Example 36, 5-(1-Ethyl-6,6-dimethyl-4,5,6,7-tetrahydro-1H-indazol-3-yl)-3-(3-methylpyridin-4-yl)-1,2,4-oxadiazole] | 48 nM
Cc1cc(-c2noc(-c3nn(C)c4c3CCC(C)(C)C4)n2)cc(C)c1CCNC(C)(C)C [Example 104, N-(2-{2,6-dimethyl-4-[5-(1,6,6-trimethyl-4,5,6,7-tetrahydro-1H-indazol-3-yl)-1,2,4-oxadiazol-3-yl]phenyl}ethyl)-2-methylpropan-2-amine] | 8.5 nM

Further compounds by falling EC50, results first:

EC50 | Structure (SMILES)
31 nM | CCc1cc(-c2noc(-c3nn(CC(F)(F)F)c4c3CCC(C)(C)C4)n2)c(C)nc1O [Example 56, 5-(5-(6,6-Dimethyl-1-(2,2,2-trifluoroethyl)-4,5,6,7-tetrahydro-1H-indazol-3-yl)-1,2,4-oxadiazol-3-yl)-3-ethyl-6-methylpyridin-2-ol]
26 nM | CCn1nc(-c2nc(-c3ccc(S(=O)(=O)NCCC(=O)O)c(Cl)c3)no2)c2c1CC(C)(C)CC2 [Example 97, 3-(2-Chloro-4-(5-(1-ethyl-6,6-dimethyl-4,5,6,7-tetrahydro-1H-indazol-3-yl)-1,2,4-oxadiazol-3-yl)phenylsulfonamido)propanoic Acid]
16 nM | Cc1cc(-c2noc(-c3nn(C)c4c3CCC(C)(C)C4)n2)cc(C)c1CCN1CC(C(=O)O)C1 [Example 91, 1-(2,6-Dimethyl-4-(5-(1,6,6-trimethyl-4,5,6,7-tetrahydro-1H-indazol-3-yl)-1,2,4-oxadiazol-3-yl)phenethyl)azetidine-3-carboxylic Acid]
16 nM | CCn1nc(-c2nc(-c3ccc(CCC(=O)O)cc3C)no2)c2c1CC(C)(C)CC2 [Example 42, 3-(4-(5-(1-Ethyl-6,6-dimethyl-4,5,6,7-tetrahydro-1H-indazol-3-yl)-1,2,4-oxadiazol-3-yl)-3-methylphenyl)propanoic Acid]
11.7 nM | CCn1nc(-c2nc(-c3ccc(S(=O)(=O)NCCC(=O)O)cc3C)no2)c2c1CC(C)(C)CC2 [Example 117, N-({4-[5-(1-ethyl-6,6-dimethyl-4,5,6,7-tetrahydro-1H-indazol-3-yl)-1,2,4-oxadiazol-3-yl]-3-methylphenyl}sulfonyl)-beta-alanine]
8.3 nM | Cc1cc(-c2noc(-c3noc4c3CCC(C)(C)C4)n2)cc(C)c1CC(O)CO (stereo not drawn) [Example 170, 3-{4-[5-(6,6-dimethyl-4,5,6,7-tetrahydro-1,2-benzisoxazol-3-yl)-1,2,4-oxadiazol-3-yl]-2,6-dimethylphenyl}propane-1,2-diol]
7.3 nM | Cc1cc(-c2nnc(-c3nn(C)c4c3CCC(C)(C)C4)s2)cc(C)c1OCCN [Example 139, (2-{2,6-dimethyl-4-[5-(1,6,6-trimethyl-4,5,6,7-tetrahydro-1H-indazol-3-yl)-1,3,4-thiadiazol-2-yl]phenoxy}ethyl)amine]
1.9 nM | CCn1nc(-c2nc(-c3ccc4c(c3)CCC(NCC(=O)O)C4)no2)c2c1CC(C)(C)CC2 (stereo not drawn) [Example 68, 2-(6-(5-(1-Ethyl-6,6-dimethyl-4,5,6,7-tetrahydro-1H-indazol-3-yl)-1,2,4-oxadiazol-3-yl)-1,2,3,4-tetrahydronaphthalen-2-ylamino)ethanoic Acid]
1.7 nM | Cc1cc(-c2noc(-c3noc4c3CCC(C)(C)C4)n2)cc(C)c1CCNCC(=O)O [Example 74]
